# Measurements published in the supplement of paper PMC10307832.
# Experiments:
# Experiment in all cases: relative viability (nuclei count vs DMSO), 5 days (fraction); higher = more cells survive
# [1] = compound: C1/C(=C\C2=CC=CS2)/C(=O)/C(=C/C3=CC=CS3)/C1 + Nc1ncn([C@H]2C[C@H](O)[C@@H](CO)O2)c(=O)n1 [Decitabine] (partner 2 µM)
# How it was run: (§1)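 Five library-drug doses in √10 steps were combined with a fixed anchor-drug dose, or a single drug was given alone, by pin tool to lung cancer cell lines in 1536-well plates the day after seeding. Nuclei were stained and counted after 5 days. Relative viability is the nuclei count in treated wells over that in vehicle wells, taken as the median of duplicate plates.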
# TPCA-1 + Dasatinib = compound: C1=CC(=CC=C1C2=CC(=C(S2)NC(=O)N)C(=O)N)F [TPCA-1] + Cc1nc(Nc2ncc(C(=O)Nc3c(C)cccc3Cl)s2)cc(N2CCN(CCO)CC2)n1 [Dasatinib] (partner 0.075 µM)
# How it was run: as §1
# [2] = compound: C[C@]12O[C@H](C[C@]1(O)CO)n1c3ccccc3c3c4c(c5c6ccccc6n2c5c31)CNC4=O [Lestaurtinib] + CC(=O)Nc1cccc(-n2c(=O)n(C3CC3)c(=O)c3c(Nc4ccc(I)cc4F)n(C)c(=O)c(C)c32)c1 [Trametinib] (partner 0.02 µM)
# How it was run: as §1
# [3] = compound: C[C@]12O[C@H](C[C@]1(O)CO)n1c3ccccc3c3c4c(c5c6ccccc6n2c5c31)CNC4=O [Lestaurtinib] + CC(C)C[C@H](NC(=O)[C@H](Cc1ccccc1)NC(=O)c1cnccn1)B(O)O [Bortezomib] (partner 0.002 µM)
# How it was run: as §1
Cell Line,relative viability ([1]; first compound 0.2 µM),relative viability ([1]; first compound 0.6325 µM),relative viability ([1]; first compound 2 µM),relative viability ([1]; first compound 6.325 µM),relative viability ([1]; first compound 20 µM),relative viability (TPCA-1 + Dasatinib; first compound 0.04 µM),relative viability (TPCA-1 + Dasatinib; first compound 0.1265 µM),relative viability (TPCA-1 + Dasatinib; first compound 0.4 µM),relative viability (TPCA-1 + Dasatinib; first compound 1.265 µM),relative viability (TPCA-1 + Dasatinib; first compound 4 µM),relative viability ([2]; first compound 0.005 µM),relative viability ([2]; first compound 0.01581 µM),relative viability ([2]; first compound 0.05 µM),relative viability ([2]; first compound 0.1581 µM),relative viability ([2]; first compound 0.5 µM),relative viability ([3]; first compound 0.005 µM),relative viability ([3]; first compound 0.01581 µM),relative viability ([3]; first compound 0.05 µM),relative viability ([3]; first compound 0.1581 µM),relative viability ([3]; first compound 0.5 µM)
LOU-NH91,0.85,0.777,0.781,0.797,0.825,0.558,0.558,0.38,0.43,0.52,0.759,0.749,0.679,0.625,0.548,0.486,0.549,0.53,0.511,0.373
LXF-289,0.371,0.386,0.355,0.373,0.344,0.24,0.225,0.267,0.134,0.104,0.66,0.691,0.494,0.467,0.159,0.975,1.08,0.75,0.762,0.185
HARA,0.755,0.571,0.558,0.529,0.595,0.298,0.289,0.298,0.257,0.231,0.639,0.832,0.685,1.09,0.268,1.21,1.33,1,0.671,0.179
LU99A,0.878,0.969,0.982,0.629,0.866,0.509,0.522,0.619,0.356,0.366,0.55,0.522,0.439,0.231,0.145,1.02,1.02,0.516,0.382,0.208
201T,0.862,0.87,0.826,0.843,0.811,0.577,0.601,0.569,0.576,0.556,0.744,0.758,0.76,0.837,0.721,1.17,1.12,1.17,1.24,0.937
HCC-827,0.316,0.38,0.377,0.28,0.308,0.299,0.199,0.391,0.293,0.155,0.536,0.527,0.573,0.456,0.458,0.923,1.08,0.989,1.11,0.647
NCI-H1666,0.697,0.732,0.751,0.636,0.736,0.842,0.829,0.828,0.805,0.677,0.898,0.892,0.882,0.88,0.781,0.87,1.25,0.969,0.765,0.35
NCI-H1915,0.261,0.279,0.246,0.232,0.268,0.322,0.292,0.33,0.263,0.243,0.318,0.254,0.253,0.12,0.0799,0.971,1.06,0.6,0.949,0.284
NCI-H2009,0.356,0.381,0.359,–,0.347,0.395,0.267,0.278,0.223,0.177,0.28,0.233,0.206,0.235,0.185,1.01,0.967,0.801,0.755,0.167
ChaGo-K-1,0.528,0.394,0.494,0.436,0.242,0.754,0.594,0.705,0.561,0.218,0.899,1.02,0.704,0.773,0.645,0.944,1.51,0.931,0.718,0.5
COR-L 105,0.526,0.668,0.699,0.444,0.7,0.307,0.361,0.345,0.225,0.204,0.408,0.419,0.446,0.347,0.341,0.893,0.665,0.706,0.521,0.253
SW 1573,0.609,0.502,0.552,0.408,0.456,0.669,0.375,0.476,0.361,0.336,0.712,0.672,0.491,0.367,0.144,1.2,1.05,0.842,0.916,0.727
NCI-H1975,0.404,0.356,0.324,0.365,0.385,0.39,0.381,0.368,0.368,0.188,0.344,0.33,0.348,0.262,0.209,0.467,0.368,0.345,0.318,0.217
NCI-H3122,0.509,0.375,0.472,0.381,0.463,1.01,0.828,0.866,0.851,0.517,0.298,0.228,0.228,0.223,0.335,1.06,1.05,1.06,1.05,0.502
NCI-H2347,0.689,0.581,0.628,0.57,0.633,0.296,0.277,0.26,0.258,0.262,0.288,0.305,0.299,0.278,0.301,0.871,1.49,1.17,0.961,0.797
HCC-78,0.653,0.763,0.755,0.714,0.686,0.485,0.452,0.402,0.413,0.297,0.832,0.807,0.578,0.522,0.284,0.47,0.488,0.425,0.283,0.29
COR-L23,0.427,0.411,0.488,0.472,0.417,0.532,0.434,0.54,0.422,0.42,0.755,0.652,0.272,0.317,0.0849,1.21,1.07,–,0.697,0.464
NCI-H1993,0.557,0.558,0.675,0.499,0.432,0.564,0.54,0.617,0.522,0.537,0.553,0.505,0.483,0.498,0.418,1.11,1,1.45,0.788,0.594
NCI-H2405,0.798,0.722,0.822,0.719,0.704,0.226,0.216,0.22,0.207,0.208,0.701,0.656,0.572,0.54,0.274,1,1.01,0.883,0.977,0.734
NCI-H2126,0.564,0.624,0.547,0.582,0.587,0.617,0.531,0.602,0.549,0.437,0.625,0.6,0.624,0.52,0.578,1.19,1.11,0.957,1.17,0.861
NCI-H1734,0.582,0.427,0.523,0.403,0.486,0.508,0.421,0.492,0.455,0.41,0.788,0.788,0.712,0.478,0.267,1.08,0.904,0.681,0.456,0.325
A-427,0.592,0.586,0.586,0.519,0.583,0.752,0.621,0.795,0.745,0.454,0.783,0.807,0.729,0.344,0.203,0.98,1.05,0.835,0.446,0.212
RERF-LC-KJ,0.816,0.767,0.728,0.619,0.463,0.988,0.668,0.76,0.591,0.508,0.946,0.879,0.736,0.701,0.478,1.43,1.17,0.908,0.836,0.728
NCI-H727,0.939,0.976,1.2,–,0.981,0.425,0.364,0.48,0.361,0.37,0.375,0.452,0.423,–,0.405,0.862,1.42,0.752,0.76,0.291
LCLC-97TM1,0.25,0.241,0.219,0.173,0.19,0.94,0.679,0.772,0.658,0.717,–,0.196,0.199,0.157,0.226,–,0.723,0.299,0.282,0.226
BEN,0.666,0.724,0.893,0.643,0.644,0.294,0.283,0.335,0.391,0.267,1.23,1.43,0.998,0.709,0.553,0.74,0.998,0.637,0.74,0.328
NCI-H2023,0.247,0.234,0.228,0.21,0.236,0.731,0.521,0.527,0.508,0.216,0.557,0.712,0.599,0.354,0.132,1.03,1.11,0.731,0.65,0.108
